Measurements reported in patent US20090252708A1, “Biotherapeutic compositions comprising probiotic escherichia coli and uses thereof” (Biobalance LLC, priority 2006, published 2009).

Experiments:
IL-12 = experiment: Colonic cytokine ELISA in DSS colitis: IL-12; assay type: in vivo, C57BL/6 mice; settings: day 13, M-17 5×10^9 CFU/ml, metronidazole 40 mg/kg
Procedure: (§1) On day 13 of the study, animals were euthanized by exposure to carbon dioxide. The colon was rapidly removed and the total colon length was determined to the nearest 0.1 cm. Typically, a 2.5 cm segment of distal colon was fixed in 10% buffered formalin, for a subsequent histological evaluation (see below). The adjacent 2.5 cm segment of colon was weighed and then frozen in liquid nitrogen. This segment of colon was used for the evaluation of colonic MPO, as well as colonic cytokine levels.
(§2) The supernatant fraction from the colonic homogenate (see above) was aliquoted into appropriate test tubes and frozen at −70° C. Subsequently, the supernatants were used to measure relevant pro-inflammatory cytokines [e.g., IFN-γ, IL-1β, TNF-α, IL-12] using commercially available mouse ELISA kits (Fitzpatrick 2000). The data was typically expressed as pg/2.5 cm of colon.

E. coli ATCC 202226 = experiment: Kirby-Bauer disc diffusion; assay type: cell-based, Escherichia coli; settings: 50 μg metronidazole paper disc, Mueller-Hinton Agar, overnight
Procedure: The Kirby-Bauer disc diffusion method was used to determine the relative sensitivity of E. coli ATCC 202226 to metronidazole (Bauer, 1966). Five colonies of E. coli ATCC 202226 were picked from trypticase soy agar (TSA) using a sterile inoculation loop and suspended in trypticase soy broth (TSB). The TSB culture was grown for 6 hours at 37° C./200 rpm. This culture was diluted in TSB to match a 0.5 McFarland turbidity standard prior to saturating a sterile cotton swab and streaking the culture onto the surface of a Mueller-Hinton Agar plate. After allowing the surface of the plate to dry, a 50 μg metronidazole paper disc (Oxoid) was placed on the lawn. The plate was incubated overnight and the zone of inhibition was recorded.

IL-6 = experiment: Colonic cytokine ELISA in DSS colitis: IL-6; assay type: in vivo, C57BL/6 mice; settings: day 13, M-17 5×10^9 CFU/ml, metronidazole 40 mg/kg
Procedure: as §1, §2

IFN-γ = experiment: Colonic cytokine ELISA in DSS colitis: IFN-γ; assay type: in vivo, C57BL/6 mice; settings: day 13, M-17 5×10^9 CFU/ml, metronidazole 40 mg/kg
Procedure: as §1, §2

DSS-induced colitis = experiment: Acute DSS-induced colitis in mice: DAI, body weight, stools, colon length and weight, tolerability; assay type: in vivo, C57BL/6 mice; settings: for DAI (table title: DAT Time Course Data): DSS days 7-13; for mice with weight loss: weight loss defined as >1%
Procedure: Mice were dosed once daily for a period of 13 days by oro-gastric gavage with a 20 gauge, one-inch long needle (Popper & Sons, New Hyde Park, N.Y.). Dosages comprised either 40 mg/kg dose of metronidazole or 5×10^9 CFU/ml probiotic solution. A 0.6% saline solution was administered as a control.
Disease Activity Indices (DAIs) were determined either daily or on alternate days, by evaluation of stool consistency and occult blood in the stool and weight loss on a standardized severity scale, as shown in Table 1 (Murthy, 1993).
Disease Activity Index (DAI) Calculation: The individual scores for weight loss, stool consistency, and occult blood/bleeding are determined, and divided by 3 to determine a mean DAI for the mouse. For example, if an animal lost 12% of the initial body weight [score=3], had evidence of diarrhea [score=4], and evidence of gross rectal bleeding [score=4], the mean DAI would be 3±4±4=11/3=3.7
In Example 3, weight loss was not very evident in the DSS-treated mice. Therefore, a modified DAI calculation was used. The modfied DAIs were calculated similarly to the DAIs of Table 1, but only the stool consistency and occult blood components were used for this determination.
Colitis was then induced by providing the mice with a solution of 2% DSS (w/v) dissolved in the filtered water for days 7 to 13 of the study. One group of mice received water without DSS. Water consumption and body weight were recorded throughout the study.
as §1
Control mice received 0.6% saline.

TNF-α, IL-1β and IL-6 = experiment: RAW 264.7 macrophages: cytokine secretion, cytokines not told apart; assay type: cell-based, mouse; settings: metronidazole 50 μg/ml; heat-killed M-17 1×10^8 CFU/ml; conditioned media 10% (v/v)
Procedure: The RAW 264.7 mouse macrophage cell line was obtained from American Type Culture Collection (ATCC). RAW 264.7 cells were grown in Dulbecco's Modified Eagle's Medium (DMEM) containing 10% FBS (Fetal Bovine Serum). The lipopolysaccharide (LPS) stimulation studies were conducted at a cell density of 2×10^6/ml. […] For the NF-κB p65 measurement, nuclear extracts were obtained from cells either immediately (0 hours) or 3 hours after LPS-stimulation. A protein determination of the nuclear extracts was done with the Bio-Rad protein assay (Bio-Rad Laboratories). For the p65 analysis, 10 μg of protein was utilized per sample. The nuclear binding of p65 was measured with the TransAM™ NF-κB p65 assay kit, according to the manufacturer's instructions.
For the cytokine secretion experiments, after 0 or 4 hours of LPS exposure, the culture medium was collected for the measurement of cytokines (TNF-α, IL-1β and IL-6) by ELISA (Pierce-Endogen), according to the manufacturer's directions. […] The media was then collected and centrifuged at 10,000 RPM for 10 minutes. Next, the CM was passed through a 0.22 micron filter prior to use in cytokine secretion experiments. […] The pellet was then resuspended in a sufficient quantity of saline to achieve a final concentration of 1×10^8 CFU/ml. […] In some experiments, we also evaluated whether metronidazole ([…]) could inhibit cytokine secretion.

colonic MPO = experiment: Colonic myeloperoxidase (TMB method) in DSS colitis; assay type: in vivo, C57BL/6 mice; settings: day 13, M-17 5×10^9 CFU/ml, metronidazole 40 mg/kg
Procedure: as §1
The 2.5 segment of colon was homogenized for about 30 seconds in 0.5 ml of molecular biology grade distilled water, using a hand-held tissue homogenizer (TissueMiser) from Fisher Scientific (Pittsburgh, Pa.). The homogenate was then centrifuged at 10,000 RPM at 4° C. for 15 minutes. The pellet was resuspended in hexadecyltrimethylammonium bromide (HTAB) buffer (pH 6.0), for the measurement of colonic MPO. MPO was assayed by the tetramethylbenzidine (TMB) method (Fitzpatrick, 2000).

[1] = test system: individual isolates of the aerobic and facultative gram positive and gram negative flora; experiment: Metronidazole ex vivo on fecal isolates; assay type: cell-based; settings: ex vivo at 50 μg/ml
[2] = test system: distal colon histological damage; experiment: Colonic histology score in DSS colitis; assay type: in vivo, C57BL/6 mice; settings: day 13, M-17 5×10^9 CFU/ml, metronidazole 40 mg/kg
Procedure: Distal colonic specimens were processed by standard methods and embedded in paraffin by the Histology core facility at the Penn State University College of Medicine. Microscope slides were coded. Using coded hematoxylin-eosin H&E slides (1 slide per mouse) from the distal colon, colonic histology scores were determined from six different areas on the slide (Williams, 2001; Krieglstein, 2001). A mean total histology score value was calculated for each mouse.
Total Histology Scores were determined by multiplying the percent involvement for each of the 3 different histological features by the area of involvement. Using this scoring system, the minimal score=0 and the maximal score=40. The percent involvement was determined with a 25 mm ocular grid attached to an Olympus CH light microscope. The histological evaluation was performed at a 400× magnification.

IL-1β = experiment: Colonic cytokine ELISA in DSS colitis: IL-1β; assay type: in vivo, C57BL/6 mice; settings: day 13, M-17 5×10^9 CFU/ml, metronidazole 40 mg/kg
Procedure: as §1, §2

[3] = after single, intravenous infusion; cited from earlier work
IL-10 = experiment: Colonic cytokine ELISA in DSS colitis: IL-10; assay type: in vivo, C57BL/6 mice; settings: day 13, M-17 5×10^9 CFU/ml, metronidazole 40 mg/kg
Procedure: as §1, §2

[4] = day 13, M-17 5×10^9 CFU/ml, metronidazole 40 mg/kg, DSS

Compound: Cc1ncc([N+](=O)[O-])n1CCO [metronidazole, 1-(beta-hydroxyethyl)-2-methyl-5-nitroimidazole]
- IL-12 (IL-12): 32 ± 2 pg/2.5 cm
- zone of inhibition (E. coli ATCC 202226): No zone of inhibition
- IL-6 (IL-6): 372 ± 75 pg/2.5 cm
- IFN-γ (IFN-γ): 56 ± 28 pg/2.5 cm
- reduction in mean DAI score compared with DSS-treated mice that received vehicle (DSS-induced colitis; day 13, M-17 5×10^9 CFU/ml, metronidazole 40 mg/kg): 47.4%
- Colon length (DSS-induced colitis; [4]): 6.8±0.2 cm
- Colon wt. (DSS-induced colitis; [4]): 70 ± 3 mg/2.5 cm
- Colon length (DSS-induced colitis; day 13, M-17 5×10^9 CFU/ml, metronidazole 40 mg/kg, DSS, listed as Metro): 6.8 ± 0.2 cm
- Modified DAI (0-4) (DSS-induced colitis; day 13, stool consistency and occult blood only, M-17 5×10^9 CFU/ml, metronidazole 40 mg/kg): 1.0 ± 0.2
- DAI (table title: DAT Time Course Data) (DSS-induced colitis; study day 0, M-17 5×10^9 CFU/ml, metronidazole 40 mg/kg): 0 ± 0
- DAI (table title: DAT Time Course Data) (DSS-induced colitis; study day 2, M-17 5×10^9 CFU/ml, metronidazole 40 mg/kg): 0 ± 0
- DAI (table title: DAT Time Course Data) (DSS-induced colitis; study day 4, M-17 5×10^9 CFU/ml, metronidazole 40 mg/kg): 0.3 ± 0.2
- DAI (table title: DAT Time Course Data) (DSS-induced colitis; study day 6, M-17 5×10^9 CFU/ml, metronidazole 40 mg/kg): 0.2 ± 0.1
- DAI (table title: DAT Time Course Data) (DSS-induced colitis; study day 8, M-17 5×10^9 CFU/ml, metronidazole 40 mg/kg): 0.1 ± 0.1
- DAI (table title: DAT Time Course Data) (DSS-induced colitis; study day 10, M-17 5×10^9 CFU/ml, metronidazole 40 mg/kg): 0.7 ± 0.2
- DAI (table title: DAT Time Course Data) (DSS-induced colitis; study day 12, M-17 5×10^9 CFU/ml, metronidazole 40 mg/kg): 0.6 ± 0.2\
- DAI (table title: DAT Time Course Data) (DSS-induced colitis; study day 13, M-17 5×10^9 CFU/ml, metronidazole 40 mg/kg): 1.0 ± 0.2\
- mice with weight loss (DSS-induced colitis; DSS-phase (days 7-13)): 30%
- mice with weight loss (DSS-induced colitis; figures given before those of the DSS-phase): 50%
- LPS-stimulated cytokine secretion (TNF-α, IL-1β and IL-6): did not reduce
- MPO (colonic MPO): 4.3 ± 1.0 U/2.5 cm
- inhibition of individual isolates [1]: did not inhibit
- Histology Score (0-40) [2]: 12.4 ± 0.9
- IL-1β (IL-1β): 359 ± 85 pg/2.5 cm
- half-life [3]: 7.3 ± 1.0 h
- IL-10 (IL-10): 91 ± 7 pg/2.5 cm
